The test relates to MCF7/siMCJ cells. Nature of the test: Intracellular ATP levels in MCF7/siMCJ cells after incubation with rotenone. Particulars: rotenone 10 μM, 4 h, versus medium (FIG. 3B). The test is classed as cell-based, human. The method, then: CD8 T cells and CD4 T cells were purified from spleen and lymph nodes by negative selection as previously described (Auphan et al., 1998 J Immunol 160, 4810-4821; Conze et al., 2002 J Exp Med 195, 811-823), and by positive selection using the MACS system as recommended by the manufacturer (Miltenyi Biotec, Cambridge, Mass.). Purified T cells were stimulated with plate-bound anti-CD3 (2C11) (5 μg/ml) and soluble anti-CD28 (1 μg/ml) (BD Biosciences, Sparks, Md.) mAbs. Proliferation assays were performed using purified CD8 T cells (10^5 cells/well) activated with anti-CD3 and anti-CD28 and labeled with [^3H]-thymidine as previously described (Conze et al., 2002 J Exp Med 195, 811-823). MCF7, MCF7/siMCJ, and 293T cell lines were maintained as previously described (Hatle et al., 2007 Mol Cell Biol 27, 2952-2966). Rotenone (used at 10 μM) was purchased from Sigma Aldrich (St. Louis, Mo.). Transfection of 293T cells by calcium phosphate was performed as previously described (Hatle et al., 2007 Mol Cell Biol 27, 2952-2966).
The levels of intracellular ATP were determined using […] cells (CD8 T cells, MCF7 cells, 293T cells) per sample and the ATPlite® Luminescence ATP Detection Assay System (PerkinElmer®, Waltham, Mass.) following the recommendations from the manufacturer and a TD-20/20 luminometer (Turner Biosystems, Promega®, Madison, Wis.). […]

On to `C=C(C)[C@H]1Cc2c(ccc3c2O[C@@H]2COc4cc(OC)c(OC)cc4[C@@H]2C3=O)O1` [rotenone, Rotenone], for which the “levels of ATP” value is “abrogated the levels of ATP”.

These data come from US11752193B2, “Administering methylation-controlled J protein (MCJ) SIRNA to a kidney cell” (University of Vermont and State Agricultural College, priority 2012, dated 2023).
